In patent US8288367B2, “Substituted estratriene derivatives as 17BETA HSD inhibitors” (Solvay Pharmaceuticals GmBH, priority 2006, dated 2012) one finds inhibition data, which are given here for 15 molecules.

Assay [1] has as its target T1, recombinant human 17β-HSD1 (Homo sapiens, UniProt P14061).
T1 construct: made in house; host or cells: Sf9 insect cells (baculovirus, Bac to Bac Expression System)
T1 sequence (P14061 1-328): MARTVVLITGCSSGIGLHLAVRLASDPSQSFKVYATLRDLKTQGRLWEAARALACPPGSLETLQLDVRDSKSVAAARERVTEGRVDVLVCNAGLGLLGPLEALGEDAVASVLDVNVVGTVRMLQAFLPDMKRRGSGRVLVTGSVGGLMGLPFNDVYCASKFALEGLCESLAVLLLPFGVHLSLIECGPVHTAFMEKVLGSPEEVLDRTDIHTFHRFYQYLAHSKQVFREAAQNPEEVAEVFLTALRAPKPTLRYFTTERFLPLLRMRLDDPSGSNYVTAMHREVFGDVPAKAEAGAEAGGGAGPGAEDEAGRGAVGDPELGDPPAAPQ
The experiment in a line: Recombinant 17β-HSD1 assay (HPLC, 3H-estrone conversion). Type of assay: biochemical. The following applies: 30 nM estrone, 1 mM NADPH, 30 min RT, read-out: Inhibition of rec. 17β-HSD1; for inhibition at 0.1 µM: 100 nM compound; for inhibition at 1 µM: 0.5 h, 1 μm compound. How it is done:
17β-HSD1 or 17β-HSD2 purification: Recombinant 17β-HSD1 and 17β-HSD2 baculoviruses were generated by the “Bac to Bac Expression System” (Invitrogen). Recombinant 17β-HSD1 or 17β-HSD2 bacmids were transfected to Sf9 insect cells using “Cellfectin Reagent” (Invitrogen). 60 h later cells were harvested; the fractions including 17β-HSD1 or 17β-HSD2 were isolated as described by Puranen et al. (1994). Aliquots were stored frozen until determination of enzymatic activity.
Recombinant 17β-HSD1 assay: Recombinant protein homogenate (0.1 μg/ml) was incubated in 20 mM KH2PO4 pH 7.4 reaction buffer, including protease inhibitors (Complete Protease Inhibitor Cocktail tablet, Roche Diagnostics, 1697498), with 30 nM estrone (Sigma, E9750) as substrate, 800 000 cpm/ml ^3H-estrone (PerkinElmer, NET319001MC) as a tracer substrate, and 1 mM NADPH (Sigma, N1630) as a co-factor for 30 min at RT, in the presence of potential inhibitors at concentrations of 1 μM or 0.1 μM. Inhibitor stock solutions were prepared in DMSO. The enzyme reaction was stopped by addition of trichloroacetic acid (1% final concentration). Samples were centrifuged in a microtiter plate at 4000 rpm for 10 min. Supernatants were applied to reverse phase HPLC on a Waters Symmetry C18 column, equipped with a Waters Sentry Guard column. Isocratic HPLC runs were performed at RT at a flow rate of 1 ml/min of acetonitrile:water 48:52 as running solvent. Radioactivity was monitored in the eluate by a Packard Flow Scintillation Analyzer. Total radioactivity for estrone and estradiol were determined in each sample and percent inhibition of estradiol conversion by the respective inhibitor was calculated
For the calculation of % inhibition the following formula was used:
[formula] Percent inhibition was calculated as follows: % inhibition=100−% conversion

The target of assay [2] is T2, recombinant human 17β-HSD2 (Homo sapiens, UniProt P37059).
T2 construct: made in house; host or cells: Sf9 insect cells (baculovirus, Bac to Bac Expression System)
T2 sequence (P37059 1-387): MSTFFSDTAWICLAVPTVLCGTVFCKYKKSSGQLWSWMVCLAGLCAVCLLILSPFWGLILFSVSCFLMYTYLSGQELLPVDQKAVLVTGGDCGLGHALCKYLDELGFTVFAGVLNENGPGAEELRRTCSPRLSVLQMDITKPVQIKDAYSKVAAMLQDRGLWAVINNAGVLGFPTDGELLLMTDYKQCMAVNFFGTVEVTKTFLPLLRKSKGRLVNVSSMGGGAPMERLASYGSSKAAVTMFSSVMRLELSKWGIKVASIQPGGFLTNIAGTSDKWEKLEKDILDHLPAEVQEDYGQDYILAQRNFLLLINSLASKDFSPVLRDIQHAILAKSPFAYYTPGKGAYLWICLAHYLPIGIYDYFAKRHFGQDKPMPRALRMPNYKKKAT
The experiment in a line: Recombinant 17β-HSD2 assay (HPLC, 3H-estradiol conversion). Type of assay: biochemical. To be noted: 50 nM estradiol, 1 mM β-NAD, read-out: Inhibition of rec. 17β-HSD2; for inhibition at 0.1 µM: 100 nM compound; for inhibition at 1 µM: 1 μm compound. The protocol: 17β-HSD1 or 17β-HSD2 purification: Recombinant 17β-HSD1 and 17β-HSD2 baculoviruses were generated by the “Bac to Bac Expression System” (Invitrogen). Recombinant 17β-HSD1 or 17β-HSD2 bacmids were transfected to Sf9 insect cells using “Cellfectin Reagent” (Invitrogen). 60 h later cells were harvested; the fractions including 17β-HSD1 or 17β-HSD2 were isolated as described by Puranen et al. (1994). Aliquots were stored frozen until determination of enzymatic activity. Recombinant 17β-HSD2 assay: Recombinant 17β-HSD2 assay was performed as described for 17β-HSD1 but with following modifications: 6 μg/ml of recombinant protein homogenate, 50 nM Estradiol (Sigma, E8875) as a substrate, 800 000 cpm/ml ^3H-estradiol (PerkinElmer, NET317) as a tracer substrate and 1 mM β-NAD (Sigma N7004) as a co-factor were used. Total radioactivity for estrone and estradiol were determined in each sample and percent inhibition of estrone conversion by the respective inhibitor was calculated. For the calculation of % inhibition the following formula was used: [formula] Percent inhibition was calculated as follows: % inhibition=100−% conversion

In the case of `Cc1cnc(NC(=O)CC[C@@H]2CC(=O)[C@@]3(C)CC[C@@H]4c5ccc(C(N)=O)cc5CC[C@H]4[C@H]23)s1` [Compound 3, 15β-{3-[(5-methyl-1,3-thiazol-2-yl)amino]-3-oxopropyl}-17-oxoestra-1(10),2,4-triene-3-carboxamide], in assay [1], the inhibition at 0.1 µM was found to be 20% and the inhibition at 1 µM turned out to be 74%. Further, in assay [2], the inhibition at 0.1 µM was -1.8% and the inhibition at 1 µM came out at 8.6%.

Take `Cc1cnc(NC(=O)CC[C@@H]2CC(=O)[C@@]3(C)CC[C@@H]4c5ccc(B(O)O)cc5CC[C@H]4[C@H]23)s1` [Compound 11, [15β-{3-[(5-methyl-1,3-thiazol-2-yl)amino]-3-oxopropyl}-17-oxoestra-1(10),2,4-trien-3-yl]boronic acid]: the inhibition at 0.1 µM in assay [1] was 62%; in assay [2] it was 4.2%. Further, the inhibition at 1 µM in assay [1] is 88%; in assay [2], 5.5%.

With `C[C@]12CC[C@@H]3c4ccc(B(O)O)cc4CC[C@H]3[C@@H]1[C@@H](CCCC(=O)NCc1ccc(O)c(O)c1)CC2=O` [Compound 12, [15alpha-{4-[(3,4-dihydroxybenzyl)amino]-4-oxobutyl}-17-oxoestra-1(10),2,4-trien-3-yl]boronic acid], the inhibition at 0.1 µM in assay [1] is 32%; in assay [2] it was -5%. The inhibition at 1 µM in assay [1] stood at 57%; in assay [2], 6.2%.

Consider `Cc1cnc(NC(=O)CCC[C@H]2CC(=O)[C@@]3(C)CC[C@@H]4c5ccc(B(O)O)cc5CC[C@H]4[C@H]23)s1` [Compound 16, [15alpha-{4-[(5-methyl-1,3-thiazol-2-yl)amino]-4-oxobutyl}-17-oxoestra-1(10),2,4-trien-3-yl]boronic acid], for which, in assay [1], the inhibition at 0.1 µM stood at 30% and the inhibition at 1 µM came out at 59%.

Regarding `C[C@]12CC[C@@H]3c4ccc(B(O)O)cc4CC[C@H]3[C@@H]1[C@@H](CCCC(=O)NCc1ccc3c(c1)OCO3)CC2=O` [Compound 19, [15alpha-{4-[(1,3-benzodioxol-5-ylmethyl)amino]-4-oxobutyl}-17-oxoestra-1(10),2,4-trien-3-yl]boronic acid], in assay [1], the inhibition at 0.1 µM came to 19% and the inhibition at 1 µM came out at 43%. Further, in assay [2], the inhibition at 0.1 µM was -2.4% and the inhibition at 1 µM was found to be 0.1%.

`CN(Cc1ccccc1)C(=O)CCC[C@H]1CC(=O)[C@@]2(C)CC[C@@H]3c4ccc(B(O)O)cc4CC[C@H]3[C@H]12` [Compound 22, [15alpha-{4-[benzyl(methyl)amino]-4-oxobutyl}-17-oxoestra-1(10),2,4-trien-3-yl]boronic acid]: in assay [1], the inhibition at 0.1 µM came to 37% and the inhibition at 1 µM stood at 60%.

As to `C[C@]12CC[C@@H]3c4ccc(B(O)O)cc4CC[C@H]3[C@@H]1[C@@H](CCCC(=O)NCc1ccccc1)CC2=O` [Compound 23, [15alpha-[4-(benzylamino)-4-oxobutyl]-17-oxoestra-1(10),2,4-trien-3-yl]boronic acid], the inhibition at 0.1 µM was 76% in assay [1] and 1.8% in assay [2]. The figures for the inhibition at 1 µM in assay [1] and in assay [2] were 54% and 0.4%, respectively.

Consider `COc1ccc(CCN(C)C(=O)CCC[C@H]2CC(=O)[C@@]3(C)CC[C@@H]4c5ccc(B(O)O)cc5CC[C@H]4[C@H]23)cc1OC` [Compound 26, [15alpha-(4-{[2-(3,4-dimethoxyphenyl)ethyl](methyl)amino}-4-oxobutyl)-17-oxoestra-1(10),2,4-trien-3-yl]boronic acid], for which, in assay [1], the inhibition at 0.1 µM came to 21% and the inhibition at 1 µM was found to be 41%.

Turning to `Cc1cccc2c(CCNC(=O)CC[C@@H]3CC(=O)[C@@]4(C)CC[C@@H]5c6ccc(B(O)O)cc6CC[C@H]5[C@H]34)c[nH]c12` [Compound 30, [15beta-(3-{[2-(7-methyl-1H-indol-3-yl)ethyl]amino}-3-oxopropyl)-17-oxoestra-1(10),2,4-trien-3-yl]boronic acid], the inhibition at 0.1 µM in assay [1] is 50%; in assay [2] it was 1.3%. The inhibition at 1 µM stood at 56% in assay [1] and 6.3% in assay [2].

Turning to `Cc1cnc(NC(=O)CC[C@@H]2CC(=O)[C@@]3(C)CC[C@@H]4c5ccc(B(O)O)cc5CC[C@H]4[C@H]23)s1` [Compound 31, [15beta-{3-[(5-methyl-1,3-thiazol-2-yl)amino]-3-oxopropyl}-17-oxoestra-1(10),2,4-trien-3-yl]boronic acid], in assay [1], the inhibition at 0.1 µM turned out to be 82% and the inhibition at 1 µM turned out to be 90%. In assay [2], the inhibition at 0.1 µM came to 2.6% and the inhibition at 1 µM stood at 1.6%.

Take `C[C@]12CC[C@@H]3c4ccc(B(O)O)cc4CC[C@H]3[C@@H]1[C@H](CCC(=O)NC1CCCCC1)CC2=O` [Compound 32, [15beta-[3-(cyclohexylamino)-3-oxopropyl]-17-oxoestra-1(10),2,4-trien-3-yl]boronic acid]: the inhibition at 0.1 µM turned out to be 77% in assay [1] and 1.1% in assay [2]. Also, the inhibition at 1 µM stood at 91% in assay [1] and 3.5% in assay [2].

For the molecule `CN(Cc1ccccc1)C(=O)CC[C@@H]1CC(=O)[C@@]2(C)CC[C@@H]3c4ccc(B(O)O)cc4CC[C@H]3[C@H]12` [Compound 37, [15beta-{3-[benzyl(methyl)amino]-3-oxopropyl}-17-oxoestra-1(10),2,4-trien-3-yl]boronic acid], in assay [1], the inhibition at 0.1 µM was found to be 22% and the inhibition at 1 µM was 49%.

As for `COc1cc(Nc2ccc3c(c2)CC[C@H]2[C@@H]4[C@@H](CCCC(=O)N5CCOCC5)CC(=O)[C@@]4(C)CC[C@H]32)cc(C(F)(F)F)c1` [Compound 75, 3-{[3-methoxy-5-(trifluoromethyl)phenyl]amino}-15alpha-(4-morpholin-4-yl-4-oxobutyl)estra-1(10),2,4-trien-17-one], in assay [1], the inhibition at 0.1 µM was 36% and the inhibition at 1 µM was 50%.

For `C[C@]12CC[C@@H]3c4ccc(Nc5cccc(S(=O)(=O)N6CCOCC6)c5)cc4CC[C@H]3[C@@H]1[C@@H](CCCC(=O)N1CCOCC1)CC2=O` [Compound 76, 15alpha-(4-morpholin-4-yl-4-oxobutyl)-3-{[3-(morpholin-4-ylsulfonyl)phenyl]amino}estra-1(10),2,4-trien-17-one], in assay [1], the inhibition at 0.1 µM was 29% and the inhibition at 1 µM is 26%.

For `C[C@]12CC[C@@H]3c4ccc(Nc5cnc6ccccc6c5)cc4CC[C@H]3[C@@H]1[C@@H](CCCC(=O)N1CCOCC1)CC2=O` [Compound 83, 15alpha-(4-morpholin-4-yl-4-oxobutyl)-3-(quinolin-3-ylamino)estra-1(10),2,4-trien-17-one], in assay [1], the inhibition at 0.1 µM was found to be 19% and the inhibition at 1 µM came to 50%.

One may read the inhibition as the change of the read-out against control, counted positive when it falls.
